In assay [1] the test system is Ad-MSCs (canine adipose SVF cells). Description: Ad-MSC proliferation, nucleated cell counts (Syto13) of plated adipose SVF cells. Format: cell-based. The settings on record: concentration not given. Here is the method: Assays for cell proliferation, colony forming units (CFU), gene expression analyses, cell surface markers, and chondrogenic and osteogenic differentiation were performed. Cell growth and Colony Forming Units (CFU) were grown in monolayer on tissue culture grade plastic in alpha MEM, 20% FBS (v/v), pen/strep. Nucleated cell counts were performed by staining with Syto13 (Invitrogen) followed by hemacytometer counting under fluorescence microscopy. Gene expression analysis was performed by quantitative RT-PCR profiling, BioRad iQ. Flow Activated Cell Storing (FACS) analyses were performed at M.D. Anderson Cancer Center FACS Core Facilities, Houston, Tex. by GALLIOS Flow Cytometry Instruments (Beckman Coulter). […]
Media was changed at days 3 and 6. Nucleated cell counts were performed by Syto13 staining followed by hemacytometer counting under fluorescence microscopy (FIG. 1B).
Fresh canine adipose SVF cells were plated at equal nucleated cell density and grown for 7 days in culture on tissue culture plastic in the presence of complete growth media and the respective concentrations (v/v) of GAG formulation. Nucleated cell counts were performed by Syto13 staining followed by hemacytometer counting under fluorescence microscopy. […]

The test system of a further assay is Sox2. Put plainly: Sox2 mRNA level in cultured Ad-MSCs, normalized to β-Actin. Format: cell-based, canine. The settings on record: 5% (v/v) formulation, 6 days culture, vs other GAG formulations. Here is the method: Assays for cell proliferation, colony forming units (CFU), gene expression analyses, cell surface markers, and chondrogenic and osteogenic differentiation were performed. Cell growth and Colony Forming Units (CFU) were grown in monolayer on tissue culture grade plastic in alpha MEM, 20% FBS (v/v), pen/strep. Nucleated cell counts were performed by staining with Syto13 (Invitrogen) followed by hemacytometer counting under fluorescence microscopy. Gene expression analysis was performed by quantitative RT-PCR profiling, BioRad iQ. Flow Activated Cell Storing (FACS) analyses were performed at M.D. Anderson Cancer Center FACS Core Facilities, Houston, Tex. by GALLIOS Flow Cytometry Instruments (Beckman Coulter). For osteogenic and chondrogenic differentiation, cells were cultured in STEMPRO induction media (Invitrogen, Carlsbad, Calif.) for 14 days, fixed in 4% formalin, and stained with Alzarin red and Alcian Blue, respectively. Statistical analyses were performed by ANOVA.
Canine Ad-MSCs were grown for 6 days in culture in the presence of complete growth media and the respective 5% (v/v) GAG formulations. Magnification=100×. Sox2 levels, a marker of stem cell proliferation, were measured in total RNA samples and normalized to β-Actin mRNA. Here “GAG” represents poly-sulfated glycosaminoglycan (ADEQUAN).

The text below walks through data of US9593309B2, “Media for culturing, preserving, and administering regenerative cells” (InGeneron, Inc., priority 2012, dated 2017).

In the case of hyaluronic acid [HA], the “effect on cell proliferation when added to culture media” value in assay [1] was “pro-mitotic, but to a lesser magnitude”. In addition, in the assay on Sox2, the Sox2 levels result is on record as “qualitatively similar, but of lesser magnitude”.
